# Entries after “also recorded” stand apart in the source; their conditions may differ.
# What was measured:
# left motor cortex = assay: Interleaved TMS/phMRI (BOLD fMRI) with TMS over motor cortex; type: in vivo, human; settings: for Voxels, effect of LTG (between day) / Z-score, effect of LTG (between day): Motor Cortex Stimulation, Placebo-LTG; for Z-score, effect of LTG (between day): p < .001
# Description: Study design: We performed a randomized, double-blind, crossover trial involving two visits at least one week apart (FIG. 8). […] Serum LTG levels, RMTs, and interleaved TMS/phMRI images during both motor and then prefrontal TMS were then gathered for each subject. One week later they received LTG or placebo again, followed by identical RMT and interleaved TMS/phMRI studies.
# Combined TMS and MRI: Immediately following RMT determination, interleaved TMS/phMRI acquisitions were performed in a Picker EDGE 1.5 T MR scanner with actively shielded magnet and high-performance gradients (27 mT/m, 72 T/m/sec) using a typical gradient echo, echo planar imaging (EPI) fMRI sequence (tip angle=90, TR=3 sec, FOV 27.0 cm, fifteen 7 mm thick slices, 1 mm gap). TMS was delivered using a Dantec MagPro with a special nonferromagnetic TMS coil of figure-8 design with an 8-meter cable (Dantec Medical A/S, Skovlunde, Denmark) and a room set up identical to prior TMS/fMRI studies from our group. TMS pulses and the fMRI sequence were interleaved as described before^21. Each cycle, illustrated in FIG. 9, consisted of six 21-sec sub-cycles—four Test and two task (100% RMT stimulation and 120% RMT stimulation). During each sub-cycle, the scanner acquired seven sets of 15 transverse images. During the task sub-cycles the TMS was triggered 100 ms after every […] image acquisition to produce a TMS stimulation rate of 1 Hz. The entire TMS/fMRI sequence lasted 882 sec (14.7 min).
# TMS Coil Placement in the MRI scanner: Motor cortex: Before being placed into the MRI scanner, subjects had their resting motor threshold (RMT) quickly determined with the Dantec TMS while sitting on the MRI gantry. For many reasons (different capacitors, coil design, length of cable, MRI filter), the RMT determined with the Magstim in the BSL was not the same RMT needed inside the MRI scanner with the Dantec. After this new MRI RMT was determined, the TMS coil was rigidly mounted in the MR head coil with a specially designed TMS coil-holder, adjustable in six dimensions^22. Subjects wore swim caps and special earplugs. With the head coil on the gantry outside the scanner bore, subjects inserted their head into the head coil and adjusted their position while the TMS coil was intermittently pulsed with 100% RMT. Subjects adjusted their head until pulsing the coil caused visible movement of the contralateral (right) hand APB (3 out of 6). As soon as a subject's new MRI RMT-correct scalp location was determined, the holder's six dimensions and earplugs were locked. These head holder settings and RMT were recorded and used with the second visit. During the second MRI visit a week later, the headholder was set with the previous week's coordinates for that subject, and the previous RMT was used for the second visit.
# Individual fMRI Data Analyses: MR scans were transferred into ANALYZE format and then further processed on Sun workstations (Sun Microsystems, Palo Alto, Calif.). Scans were checked using MEDx3.3 (Sensor Systems Inc, Sterling, Va.) for movement across runs, and then were coregistered to a mean image using automatic image registration. For all subjects, movement across the 14.7-minute study was less than 2 mm in all 3 axes. After correction of motion, we used a delayed boxcar model, employed a high-pass filter to remove signal drift, cardiac and respiratory effects, and other low frequency artifacts. Then, we spatially transformed each subject's data into the Talairach Atlas (input voxel dimensions, 2.1×2.1×8 mm, to output voxel dimensions, 4×4×4 mm), smoothed (4×2 mm) the data and generated z map with the Statistical Parametric Mapping (SPM) 96 module in MEDx3.3. We assumed an uncorrected F threshold UF P>0.99 to preserve as many voxels as possible for the cluster analysis.
# Group fMRI Data Analyses: All subject's unthresholded z maps were combined based on comparison of condition (TMS vs Rest), intensity (100% RMT-TMS vs 120% RMT-TMS), visit (LTG vs Placebo). […]
# [1] = single oral dose of 325 mg of LTG; transiently (for 3 hours); cited from earlier work
smiles,measurement,setting,value
"Nc1nnc(-c2cccc(Cl)c2Cl)c(N)n1 [LTG, Lamotrigine]","number of active voxels in the motor cortex underneath the TMS coil, compared with placebo","left motor cortex; 120% RMT minus rest over motor cortex, 10 subjects, Wilcoxon p=0.05",significantly decreased
same,"Z-score, region of activation","left motor cortex; LTG day, within day, n = 10, 100% RMT-Rest, Left cingulate gyrus (BA 32), Talairach −4,32,28",3.97
same,"Z-score, region of activation","left motor cortex; LTG day, within day, n = 10, 100% RMT-Rest, Left insula (BA 13), Talairach −36,20,12",3.98
same,"Z-score, region of activation","left motor cortex; LTG day, within day, n = 10, 100% RMT-Rest, Left middle frontal gyrus (BA 46), Talairach −44,40,24",4.59
same,"Z-score, region of activation","left motor cortex; LTG day, within day, n = 10, 100% RMT-Rest, Right insula (BA 13), Talairach 36,8,12",4.26
same,"Z-score, region of activation","left motor cortex; LTG day, within day, n = 10, 100% RMT-Rest, Right middle frontal gyrus (BA 6), Talairach 32,8,52",4.06
same,"Z-score, region of activation","left motor cortex; LTG day, within day, n = 10, 100% RMT-Rest, Right postcentral gyrus (BA 3), Talairach 52,−16,40",3.18
same,"Z-score, region of activation","left motor cortex; LTG day, within day, n = 10, 100% RMT-Rest, Right precentral gyrus, Talairach 40,−4,32",4.31
same,Region of activation,"left motor cortex; LTG day, within day, n = 10, 120% RMT-100%",No activity
same,"Z-score, region of activation","left motor cortex; LTG day, within day, n = 10, 120% RMT-Rest, Left medial frontal gyrus (BA 6), Talairach −4,60,0",4.06
same,"Z-score, region of activation","left motor cortex; LTG day, within day, n = 10, 120% RMT-Rest, Left postcentral gyrus (BA 2), Talairach −36,0,4",4.60
same,"Z-score, region of activation","left motor cortex; LTG day, within day, n = 10, 120% RMT-Rest, Left superior temporal gyrus, Talairach −60,8,24",3.14
same,"Z-score, region of activation","left motor cortex; LTG day, within day, n = 10, 120% RMT-Rest, Left thalamus, Talairach −32,8,−24",6.46
same,"Z-score, region of activation","left motor cortex; LTG day, within day, n = 10, 120% RMT-Rest, Right cingulate gyrus, Talairach 4,28,−16",4.33
same,"Z-score, region of activation","left motor cortex; LTG day, within day, n = 10, 120% RMT-Rest, Right middle frontal gyrus (BA 9), Talairach 48,36,12",4.62
same,"Z-score, region of activation","left motor cortex; LTG day, within day, n = 10, 120% RMT-Rest, Right superior temporal gyrus (BA 38), Talairach 40,−12,4",3.14
same,"Voxels, effect of LTG (between day)","left motor cortex; Cerebellum, Right",70
same,"Z-score, effect of LTG (between day)","left motor cortex; Cerebellum, Right, Talairach 13,−46,−23",3.34
same,"Voxels, effect of LTG (between day)",left motor cortex; Left Precentral gyrus (underneath TMS coil),82
same,"Z-score, effect of LTG (between day)","left motor cortex; Left Precentral gyrus (underneath TMS coil), Talairach −32,−24,52",3.87
same,"Voxels, effect of LTG (between day)","left motor cortex; Posterior Cingulate, Left",93
same,"Z-score, effect of LTG (between day)","left motor cortex; Posterior Cingulate, Left, Talairach −1,−25,50",3.95
same,"Voxels, effect of LTG (between day)","left motor cortex; Precuneus, Left",132
same,"Z-score, effect of LTG (between day)","left motor cortex; Precuneus, Left, Talairach −1,−62,50",3.48
same,"TMS-induced activation in the motor cortex (underneath the coil) and other regions, compared to placebo","left motor cortex; formal between-day analysis, group data in 10 subjects",significantly less; also recorded: reduced
same,% BOLD signal change in motor cortex compared with placebo,"left motor cortex; left primary motor cortex beneath the coil, 10 subjects, ANOVA F=11.89, p=0.007",significantly decreased
same,serum concentrations after single oral dose,[1],equal to steady state levels at clinically relevant chronic doses

# Reference: patent publication US20090024021A1, “Methods and Systems for Using Transcranial Magnetic Stimulation and Functional Brain Mapping for Examining Cortical Sensitivity, Brain Communication, and Effects of Medication” (priority 2002, published 2009)
